Data reported in patent US20070142306A1, “Strontium-based complexes, pharmaceutical compositions and dietetic products” (MEDESIS PHARMA SA, priority 2003, published 2007).
Where “and” joins values, the source holds several entries; their conditions need not be identical. Identical values can stand only once.

Tests used:
female Wistar rats = assay: Femoral head (epiphyseal) diameter / bone growth after 21 days rectal treatment; format: in vivo, rat
Procedure: (§1) Administration to female Wistar rats weighing 200 g.
Number of animals per group: 6 and 8.
Text complex: NP05 (composition produced according to the invention, in which only the quantity of strontium varies).
(§2) Volume of administration: 2 ml/kg.
(§3) Route of administration: Rectal route.
(§4) Dose frequency: Once a day—every 24 hours.
(§5) Treatment duration: 21 days.
(§6) The animals were sacrificed and the femoral bones were removed, cleaned of their tendinous and muscular attachments, then frozen.
The femoral epiphyseal diameter was measured.

osteoblast = conditions: cited from earlier work
[1] = Assay of strontium in femoral bones by atomic absorption spectrometry; format: in vivo, rat; conditions: 3 weeks treatment, 68.2 mg/kg/d
Procedure: as §1, §2, §3, §4, §5, §6
Strontium was then assayed in the bones by atomic absorption spectrometry.
The assay of strontium in bone was carried out.

osteoclast = conditions: cited from earlier work
rat model = conditions: administration for 8 weeks; cited from earlier work
humans = conditions: in humans; cited from earlier work
postmenopausal women = conditions: 2 mg per day, two years; cited from earlier work
animal = conditions: cited from earlier work

| strontium incorporation in bone compared with the controls [1] | SMILES | effect on bone growth (female Wistar rats; 3 weeks treatment, compared with control animals (NP05 also with the strontium chloride group)) | Diameter of femoral head, Mean (female Wistar rats; group mean, 68.2 mg/kg strontium metal, rectal, 21 days) | Diameter of femoral head, Femur 1 (female Wistar rats; individual rats, 68.2 mg/kg strontium metal, rectal, once a day, 21 days) | Diameter of femoral head, Femur 2 (female Wistar rats; individual rats, 68.2 mg/kg strontium metal, rectal, once a day, 21 days, 68.2 mg/kg) | osteoblast proliferation (osteoblast) | osteoclast multiplication (osteoclast) | minimum dose stimulating bone growth (rat model) | amount necessary to obtain therapeutic activity (humans) | bone alkaline phosphatase (marker of bone formation) (postmenopausal women) | bone mineral density in the lumbar spine (postmenopausal women) | marker of bone resorption (postmenopausal women) | dose required for therapeutic activity in animal studies (animal; as strontium ranelate, corresponding to 68.2 mg of strontium metal) | dose causing toxic effects (osteomalacic bone lysis) (animal; ranelate dose, four times the active dose) |
| --- | --- | --- | --- | --- | --- | --- | --- | --- | --- | --- | --- | --- | --- | --- |
| 4 | [Cl-].[Cl-].[Sr+2] [Strontium chloride, strontium chloride] | no effect | 4.01 millimeters | 4 millimeters | 4 millimeters (7×) and 4.1 millimeters | stimulation | inhibition | 68.2 mg of strontium (metal) |  |  |  |  |  |  |
|  | N#Cc1c(N(CC(=O)[O-])CC(=O)[O-])sc(C(=O)[O-])c1CC(=O)[O-].[Sr+2].[Sr+2] [strontium ranelate] |  |  |  |  | stimulation | inhibition | 68.2 mg of strontium (metal) | 2 g/day | significantly increased | significant increase | decreased | 200 mg per day | above 800 mg per day |
